{"source": "patent US9363996B2", "about": "“Compositions and method for blocking ethylene response in field crops using 3-(cy-clopropyl-l-enyl)-propanoic salt” (Yissum Research Development Company of the Hebrew …, priority 2009, dated 2016)", "tested_on": "Winter wheat", "test": "Field experiment in wheat: seed yield and seed weight", "type": "in vivo, Winter wheat (Ttriticum aestivum, var. Galil)", "settings": "for yield increase over the control, hand-separated: g/100 spikes; for seed yield increase compared to the untreated control, mechanically thresh separated: g/plot", "text": "Plant material and experimental design—Winter wheat (Ttriticum aestivum, var. Galil) was sown in December 2008 in a medium-heavy soil in the farm of the Volcani Center, Agricultural Research Organization, Bet-Dagan, Israel. Winter rainfall between October and March was 515 mm. The crop was raised without irrigation. The plants were sprayed twice with insecticide in November with ‘Tunex’ (one L/acre) and in December with ‘Oror Turbo’ (200 g/acre). The experiment started in mid-March, 2009. Six blocks were randomly selected, and each block was further randomly divided into four treatment plots of two square meters each (FIG. 67A—right and left). Two-meter-wide strips of untreated plants served as border lines between the blocks (FIG. 67A—center). The following treatments were applied: 1. control; 2. spraying WS-CPD at the ‘Milky’ stage I (30.3.09); 3. spraying WS-CPD at the ‘Milky’ stage II (17.4.09); 4. two successive WS-CPD sprays as above (30.3.09 and 17.4.09).\nTreatments—The treatment solution of WS-CPD contained 120 μg mL^−1 of WS-CPD in 10 mM K-phosphate buffer (pH 7.6) and 0.1% of ‘Kinetic’ surfactant. Spraying (about 0.8 L/two square meters) was applied with a portable sprayer (ACL 7-L, Great Brittan). The controls were sprayed with the treatment solution without WS-CPD. The spraying was aimed to cover the upper part of the plants, from the second leaf below the ‘Flag leaf’ and up, covering the whole spike.\nDetermination of seed development—In order to follow the dynamics of seed development from ‘Milky’ stage I to seed maturity, groups of 200 spikes were sampled from the border strips. Samples were taken on 30.3.09 (‘Milky’ stage I), 17.4.09 (‘Milky’ stage II), and 19.5.09 (seed maturity). The spikes were brought to the laboratory and dried in an oven (60° C.) until complete dryness. After drying, the seeds were separated from each spike, counted, and their weight was recorded to determine the average seed weight for each spike. The number of spikes with the same average seed weight of each treatment was expressed as percent of total spike number.\nHarvesting—At the termination of the experiment (19.5.09), when the seeds reached full maturity, the spikes from all six blocks were harvested, counted, and placed on tables in the greenhouse for 12 days to reach complete dryness (FIG. 67B).\nHand seed separation—One hundred dried spikes were randomly sampled of each plot (n=6) after harvesting. The seeds of each spike were separated (FIGS. 67C and D) and counted and their weight was determined. The seed weight of each spike was divided by the number of seeds per spike to determine the average seed weight of each spike. The number of spikes of each treatment with the same average seed weight was expressed as percent of total spike number.\nMechanical thresh seed separation—The remaining dry spikes of each experimental plot were counted and mechanically thresh separated (Kurt Pelz Co., Germany) from their glumes and chafes, and their dry weight was recorded (g/plot). For comparison of the yield weight of the controls between mechanical thresh and hand separation, 200 seeds from each method were randomly sampled.\nEffect of WS-CPD on Yield—This effect of WS-CPD was studied by two ways: a) calculating the yield of each experimental plot (g/plot) and; b) calculating the yield dry weight of 100 spikes randomly selected in each experimental plot (g/100 spikes).", "key": {"[1]": {"settings": "WS-CPD 120 μg mL^−1 spray at 'Milky' stage I"}, "[2]": {"settings": "WS-CPD 120 μg mL^−1 spray at 'Milky' stage II"}}}
{"smiles": "O=C([O-])CCC1=CC1.[Na+]", "note": "[WS-CPD, 3-cyclopropyl-1-enyl-propanoic sodium salt]", "values": [{"measurement": "yield increase over the control, hand-separated", "setting": "[1]", "result": "about 15±2.6%"}, {"measurement": "seed yield increase compared to the untreated control, mechanically thresh separated", "setting": "[1]", "result": "about 5%"}, {"measurement": "yield increase over the control, hand-separated", "setting": "[2]", "result": "about 8%"}, {"measurement": "seed yield increase compared to the untreated control, mechanically thresh separated", "setting": "[2]", "result": "~8", "unit": "%"}, {"measurement": "increase of seed weight", "setting": "one spray at 'Milky' stage I, hand-separated, mg/seed", "result": "about 15%"}, {"measurement": "distribution of seed weight at maturity versus control spikes", "setting": "sprayed at 'Milky' stage I, II or both", "result": "always significantly heavier"}, {"measurement": "yield, hand-separated", "setting": "spraying twice at 'Milky' stages I+II versus one spray at stage I", "result": "no advantage"}, {"measurement": "seed yield, mechanically thresh separated", "setting": "spraying twice at 'Milky' stages I+II versus spraying once", "result": "no advantage"}]}
